What was measured:
[1] = Cytotoxic activity on normal cells, MTT viability assay; assay type: cell-based, human; details: human, MRC-5 normal lung fibroblast cells; for viability at 24 h, 2.5 µM: sample conc. 2.5 µM; for viability at 24 h, 5 µM: sample conc. 5.0 µM; for viability at 24 h, 9.8 µM: sample conc. 9.8 µM; for viability at 24 h, 39.1 µM: sample conc. 39.1 µM; for CC50 at 24 h: MRC-5 cells, MTT
Procedure: In this regard, the selectivity index (SI) was calculated as the ratio of cytotoxic effect on the normal cell line to the cytotoxic effect on the cancer cell line.
Method S4 Evaluation of Cytotoxic activity
The cells were propagated in Dulbecco’s modified Eagle’s medium (DMEM) supplemented with 10% heat-inactivated fetal bovine serum, 1 % L-glutamine, HEPES buffer and 50µg/mL Gentamycin. All cells were maintained at 37 °C in a humidified atmosphere with 5% CO2 and were subcultured tw o times a week.
Cytotoxicity evaluation using viability assay
For cytotoxicity assay, the cells were seeded in 96-well plate at a cell concentration of 1×10^4 cells per well in 100µl of growth medium. Fresh medium containing different concentrations of the test sample was added after 24 h of seeding. Serial two-fold dilutions of the tested chemical compound were added to confluent cell monolayers dispensed into 96-well, flat-bottomed microtiter plates (Falcon, NJ, USA) using a multichannel pipette. The microtiter plates were incubated at 37 °C in a humidified incubator with 5% CO2 for a period of 24 h. Three wells were used for each concentration of the test sample. Control cells were incubated without test sample and with or without DMSO. The little percentage of DMSO present in the […]
cells for at 37°C, for 24 h, the viabl e cells yield was determined by the MTT test.
Briefly, the media was removed from the 96 well plate and replaced with 100 µL of fresh culture DMEM m edium without phenol red then 10 µL of the 12 mM MTT stock solution (5 mg of MTT in 1 mL of PBS) to each well including the untreated controls. The 96 well plates were then incubated at 37°C and 5% CO2 for 4 hours. An 85 µL aliquot of the media was removed from t he wells, and 50 µL of DMSO was added to each well and mixed thoroughly with the pipette and incubated at 37°C for 10 min. Then, the optical density was measured at 590 nm with the microplate reader (SunRise, TECAN, Inc, USA) to determine the number of viable cells and the percentage of viability was calculat ed as [(ODt/ODc)]x100% where ODt i s the mean optical density of wells treated with the tested s ample and ODc is the mean optical density of untreated cells. The relation between surviving cells and drug concentration is plotted to get the survival curve of each tumor cell line after treatment with the specified compound. The 50% inhibitory concentration (IC50), the concentration required to cause t oxic effects in 50% of intact cells, was estimated from graphic plots of the dose response curve for each conc. using Graphpad Prism software (San Diego, […]

[2] = test system: A. fumigatus (RCMB 002008); assay: Agar well diffusion, inhibition zone; assay type: cell-based; details: 10 mg/mL of the tested compounds
Procedure: (§1) The antimicrobial activity of the free ligands and the corresponding Cu(II) complexes was determined against different categories of microbes (Table 5). All inhibition zones were determined at 10 mg/mL of the tested compounds. […] The largest inhibition zones were found for B. subtilis (25 mm), which is very close to the standard Gentamycin (26 mm). […] Complex 1 evidenced antimicrobial activity against all microbes except C. albicans.
(§2) Method S2: Antimi crobial studies a) Tested pathogenic microbes
(§3) The antibacterial a ctivity of the studied ligands and their Cu(II) complexes were evaluated against two Gram positive bacteria ((S. aureus (ATCC 25923) and B. subtilis (RCMB015(1)NRR LB-543)), two Gram negatvie bacteria ((E. coli (ATCC 25922) and P. vulgaris (RCMB 004(1)ATCC 13315)) and two fungi ((A. fumigatus […]
was used as standard antibacterial agent. The samples maintained in Brain heart infusion (BHI) at 20 °C; […] of each stock–c ulture was added to 3 mL of BHI […]
broth. […]
(§4) 0.5). In case of fungi A. fumigatus (RCMB 002008) and C. albicans (RCMB 005003(1) ATCC 10231), the used medium in antagonistic activity against tested fungi is Potato Dextrose Agar, where Fluconazole was used standard antifungal agent. b) Agar well diffusion method
(§5) Synthetic compounds were prepared at concentration 10 mg/mL dissolved in DMSO as stock solutions. Preparation of sterilized Mueller Hinton agar plates seeded with tested pathogenic b acteria occurred. The wells are done by sterilized cork borer in size […]
(§6) comparably with DMSO as control. The plates were incubated at 37°C for 24 h. after incubation period; antimicrobial activity was d etermined by inhibition zones. […]

[3] = test system: C. albicans (RCMB 005003(1) ATCC 10231); assay: Agar well diffusion, inhibition zone; assay type: cell-based; details: 10 mg/mL of the tested compounds
Procedure: as §1, §2
The antibacterial a ctivity of the studied ligands and their Cu(II) complexes were evaluated against two Gram positive bacteria ((S. aureus (ATCC 25923) and B. […]
as §4, §5, §6

[4] = test system: B. subtilis (RCMB015(1)NRR LB-543); assay: Agar well diffusion, inhibition zone; assay type: cell-based; details: 10 mg/mL of the tested compounds
Procedure: as §1, §2, §3
(§7) was used as standard antibacterial agent. The samples maintained in Brain heart infusion (BHI) at 20 °C; […] of each stock–c ulture was added to 3 mL of BHI broth. Overnight cultures were kept for 24 h at 37 °C ± 1 °C and the purity of cultures was checked aft er 24 h of incubation. […]
(§8) b) Agar well diffusion method
as §5, §6

E. coli (ATCC 25922) [5] = assay: Agar well diffusion, inhibition zone; assay type: cell-based; details: 10 mg/mL of the tested compounds
Procedure: as §1, §2, §3, §7, §8, §5, §6

[6] = test system: P. vulgaris (RCMB 004(1)ATCC 13315); assay: Agar well diffusion, inhibition zone; assay type: cell-based; details: 10 mg/mL of the tested compounds
Procedure: as §1, §2, §3, §7, §8, §5, §6

S. aureus (ATCC 25923) [7] = assay: Agar well diffusion, inhibition zone; assay type: cell-based; details: 10 mg/mL of the tested compounds
Procedure: as §1, §2, §3, §7, §8, §5, §6

[8] = test system: B. subtilis (RCMB015(1)NRR LB-543); assay: Minimum Inhibitory Concentration (MIC); assay type: cell-based
Procedure: as §2, §3, §7
(§9) c) Minimum Inhibitory Concentration (MIC)
(§10) Different dilutions of the compounds are inoculat ed with tested pathogenic microbes.
(§11) After incubation period of 96 well microplate, the results are meas ured using microplate reader. To determine at what level the MIC endpoint is established; subculture of test samples at different concentrati ons occurred in nutrient agar plates.

E. coli (ATCC 25922) [9] = assay: Minimum Inhibitory Concentration (MIC); assay type: cell-based
Procedure: as §2, §3, §7, §9, §10, §11

[10] = test system: P. vulgaris (RCMB 004(1)ATCC 13315); assay: Minimum Inhibitory Concentration (MIC); assay type: cell-based
Procedure: as §2, §3, §7, §9, §10, §11

S. aureus (ATCC 25923) [11] = assay: Minimum Inhibitory Concentration (MIC); assay type: cell-based
Procedure: as §2, §3, §7, §9, §10, §11

SMILES | CC50 at 24 h [1] [µM] | Inhibition zone diameters [2] | Inhibition zone diameters [3] | Inhibition zone diameters [4] [mm] | Inhibition zone diameters (E. coli (ATCC 25922) [5]) [mm] | Inhibition zone diameters [6] [mm] | Inhibition zone diameters (S. aureus (ATCC 25923) [7]) [mm] | MIC [8] [µg/mL] | MIC (E. coli (ATCC 25922) [9]) [µg/mL] | MIC [10] [µg/mL] | MIC (S. aureus (ATCC 25923) [11]) [µg/mL] | further results
CC(=NNc1nc(N2CCOCC2)nc(N2CCOCC2)n1)c1ccccc1O [DMOHT, 2-(1-(2-(4,6-dimorpholino-1,3,5-triazin-2-yl)hydrazono)ethyl)phenol] | 1000 | – | – | – | – | – | – | – | – | – | – | viability at 24 h, 2.5 µM ([1]; MRC-5, Table S12): 100%; viability at 24 h, 5 µM ([1]; MRC-5, Table S12): 100%; viability at 24 h, 9.8 µM ([1]; MRC-5, Table S12): 100%; viability at 24 h, 19.5 µM ([1]; MRC-5, sample conc. 19.5 µM, Table S12): 100%; viability at 24 h, 39.1 µM ([1]; MRC-5, Table S12): 100%; viability at 24 h, 78.2 µM ([1]; MRC-5, sample conc. 78.2 µM, Table S12): 100%; viability at 24 h, 156.5 µM ([1]; MRC-5, sample conc. 156.5 µM, Table S12): 97.9%; viability at 24 h, 312.9 µM ([1]; MRC-5, sample conc. 312.9 µM, Table S12): 89.6%; viability at 24 h, 625.8 µM ([1]; MRC-5, sample conc. 625.8 µM, Table S12): 67.6%; viability at 24 h, 1251.7 µM ([1]; MRC-5, sample conc. 1251.7 µM, Table S12): 38.2%
CC(=NNc1nc(N2CCOCC2)nc(N2CCOCC2)n1)c1ccccc1[O-].CC(=O)[O-].[Cu+2] [Complex 2, [Cu(DMOT)(CH3COO)]] | – | 15 mm | 10 mm | 25 | 14 | 15 | 11 | 39.06 | 1250 | 1250 | 1250 | –
CC(=NNc1nc(N2CCOCC2)nc(N2CCOCC2)n1)c1ccccc1N [DMAT, 2-(1-(2-(4,6-dimorpholino-1,3,5-triazin-2-yl)hydrazono)ethyl)aniline] | 716 | – | – | – | – | – | – | – | – | – | – | viability at 24 h, 2.5 µM ([1]; MRC-5, Table S10): 100%; viability at 24 h, 5 µM ([1]; MRC-5, Table S10): 100%; viability at 24 h, 9.8 µM ([1]; MRC-5, Table S10): 100%; viability at 24 h, 19.6 µM ([1]; MRC-5, sample conc. 19.6 µM, Table S10): 100%; viability at 24 h, 39.1 µM ([1]; MRC-5, Table S10): 100%; viability at 24 h, 78.4 µM ([1]; MRC-5, sample conc. 78.4 µM, Table S10): 100%; viability at 24 h, 156.8 µM ([1]; MRC-5, sample conc. 156.8 µM, Table S10): 99.8%; viability at 24 h, 313.7 µM ([1]; MRC-5, sample conc. 313.7 µM, Table S10): 89.3%; viability at 24 h, 627.4 µM ([1]; MRC-5, sample conc. 627.4 µM, Table S10): 53.9%; viability at 24 h, 1254.8 µM ([1]; MRC-5, sample conc. 1254.8 µM, Table S10): 26.1%
CC(=NNc1nc(N2CCOCC2)nc(N2CCOCC2)n1)c1ccccc1[O-].O=[N+]([O-])[O-].[Cu+2] [Complex 3, [Cu(DMOT)(NO3)]] | – | no antifungal activity | no antifungal activity | 24 | 15 | 13 | 12 | 78.125 | 312.5 | 1250 | 1250 | –

From publication PMC9106035, “Synthesis, X-ray Structure and Biological Studies of New Self-Assembled Cu(II) Complexes Derived from s-Triazine Schiff Base Ligand” (Molecules, 2022)
